For 33 compounds, IC50 results are on record in patent US7829665B2 (priority 2005, dated 2010).

The target in this test is T1, full-length NS3/NS4A-2 (HCV NS3 protease) (Hepatitis C virus genotype 1a, UniProt P27958).
T1 construct: Recombinant E. coli or Baculovirus full-length NS3 was diluted to 3.33 μM with assay buffer; made in house; host or cells: E. coli or baculovirus (BV) expression system
In words: NS3-NS4 protease assay / NS3 inhibition assay (RETS1 substrate, fluorescence kinetic read). The format is biochemical. As to conditions: read-out: NS3-NS4 IC50. The protocol: NS3 complex formation with NS4A-2.
Recombinant E. coli or Baculovirus full-length NS3 was diluted to 3.33 μM with assay buffer and transferred material to an eppendorf tube and place in water bath in 4° C. refrigerator. The appropriate amount of NS4A-2 to 8.3 mM in assay buffer was added to equal the volume of NS3 in step 2.1.1 (conversion factor—3.8 mg/272 μL assay buffer). The material was transferred to an eppendorf tube and place in water bath in 4° C. refrigerator.
After equilibration to 4° C., equal volumes of NS3 and NS4A-2 solutions were combined in an eppendorf tube, mix gently with a manual pipettor, and incubate mixture for 15 minutes in the 4° C. water bath. Final concentrations in the mixture are 1.67 μM NS3, 4.15 mM NS4A-2 (2485-fold molar excess NS4A-2).
After 15 minutes at 4° C., the NS3/NS4A-2 eppendorf tube was removed and place it in a room temperature water bath for 10 minutes. NS3/NS4A-2 was alliquoted at appropriate volumes and store at −80° C. (E. coli NS3 run at 2 nM in assay, aliquot at 25 μL. BV NS3 run at 3 nM in assay, aliquot at 30 μL).
Sample compounds were dissolved to 10 mM in DMSO then diluted to 2.5 mM (1:4) in DMSO. Typically, compounds were added to an assay plate at 2.5 mM concentration, yielding upon dilution a starting concentration of 50 microM in the assay inhibition curve. Compounds were serial diluted in assay buffer to provide test solutions at lower concentrations.
The E. coli. NS3/NS4A-2 was diluted to 4 nM NS3 (1:417.5 of 1.67 μM stock−18 μL 1.67 μM stock+7497 μL assay buffer). The BV NS3/NS4A-2 was diluted to 6 nM NS3 (1:278.3 of 1.67 μM stock−24 μL 1.67 μM stock+6655 μL assay buffer). Using the manual multichannel pipettor, careful not to introduce bubbles into the plate, add 50 μL assay buffer to wells A01-H01 of a black Costar 96-well polypropylene storage plate.
Using the manual multichannel pipettor, careful not to introduce bubbles into the plate, add 50 μL of diluted NS3/NS4A-2 from step 2.2.6 to wells A02-H12 of plate in step 2.2.7. Using the manual multichannel pipettor, careful not to introduce bubbles into the plate, transfer 25 μL of the wells in drug dilution plate in step 2.2.5 to corresponding wells in assay plate in step 2.2.8. Change tips on multichannel pipettor for each row of compounds transferred. Using the manual multichannel pipettor, careful not to introduce bubbles into the plate, mix the wells from the assay plate in step 2.2.9 by aspirating and dispensing 35 μL of the 75 μL in each well five times. Change tips on multichannel pipettor for each row of wells mixed. Cover plate with a polystyrene plate lid and pre-incubate the plate from step 2.2.10 containing NS3 protease and sample compounds 10 minutes at room temperature. While plate from step 2.2.11 is pre-incubating, dilute RETS1 substrate in a 15 mL polypropylene centrifuge tube. Dilute RETS1 substrate to 8 μM (1:80.75 of 646 μM stock−65 μL 646 μM stock+5184 μL assay buffer).
After the plate in step is done pre-incubating, and using the manual multichannel, add 25 μL of substrate to all wells on the plate. Quickly mix the plate as in step 2.2.10, mixing 65 μL of the 100 μL in the wells.
Read the plate in kinetic mode on the Molecular Devices SpectraMax Gemini XS plate reader. Reader settings: Read time: 30 minutes, Interval: 36 seconds, Reads: 51, Excitation λ: 335 nm, Emission λ: 495 nm, cutoff: 475 nm, Automix: off, Calibrate: once, PMT: high, Reads/well: 6, Vmax pts: 21 or 28/51 depending on length of linearity of reaction
IC50 s are determined using a four parameter curve fit equation, and converted to Ki's using the following Km's: • Full-length E. coli NS3—2.03 μM • Full-length BV NS3—1.74 μM where Ki=IC50/(1+[S]/Km)) • Quantitation by ELISA of the selectable marker protein, Neomycin phosphotransferase II (NPTII) in the HCV Sub-Genomic Replicon, GS4.3

The mark [1] stands for this setting: recombinant E. coli or Baculovirus full-length NS3 with NS4A-2.

Broadly, the IC50 is the concentration at which inhibition is half-maximal.

Like-named read-outs stand apart in the source and are kept apart here.

T1 sequence (P27958 1027-1657): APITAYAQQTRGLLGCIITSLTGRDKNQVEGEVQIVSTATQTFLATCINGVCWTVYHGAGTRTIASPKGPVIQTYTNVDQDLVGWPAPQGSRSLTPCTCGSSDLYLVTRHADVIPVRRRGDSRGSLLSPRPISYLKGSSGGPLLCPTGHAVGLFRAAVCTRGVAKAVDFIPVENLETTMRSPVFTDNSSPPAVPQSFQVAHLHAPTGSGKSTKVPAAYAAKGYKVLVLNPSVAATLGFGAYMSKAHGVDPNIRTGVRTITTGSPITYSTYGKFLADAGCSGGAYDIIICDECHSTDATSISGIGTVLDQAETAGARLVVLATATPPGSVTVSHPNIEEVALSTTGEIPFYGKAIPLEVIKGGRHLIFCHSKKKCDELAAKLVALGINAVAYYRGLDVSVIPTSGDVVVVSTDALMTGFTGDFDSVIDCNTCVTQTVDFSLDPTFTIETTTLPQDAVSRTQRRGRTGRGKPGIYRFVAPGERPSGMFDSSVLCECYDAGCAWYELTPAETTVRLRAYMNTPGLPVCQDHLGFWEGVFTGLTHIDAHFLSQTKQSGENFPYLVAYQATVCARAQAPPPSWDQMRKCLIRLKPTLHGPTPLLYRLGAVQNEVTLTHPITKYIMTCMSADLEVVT

Turning to `CC(C)(C)OC(=O)N[C@H]1CCCCC/C=C\[C@@H]2C[C@@]2(C(=O)NS(=O)(=O)c2ccc(F)cc2)NC(=O)[C@@H]2CCCN2C1=O` [Compound 2114], the IC50 under setting [1] was < 10 µM. With `CC(C)(C)OC(=O)N[C@H]1CCCCC/C=C\[C@@H]2C[C@@]2(C(=O)NCCN2CCOCC2)NC(=O)[C@@H]2C[C@@H](OC(=O)N3Cc4cccc(F)c4C3)CN2C1=O` [Compound 607], under setting [1], the IC50 was > 10 µM. For the compound `CC(C)(C)OC(=O)N[C@H]1CCCCC/C=C\[C@@H]2C[C@@]2(C(=O)NC2CC2)NC(=O)[C@@H]2CCCN2C1=O` [Compound 2318], the IC50 (Table 22) is < 1 µM. Regarding `CN(c1cccc(Cl)c1)S(=O)(=O)NC(=O)[C@@]12C[C@H]1/C=C\CCCCC[C@H](NC(=O)OC(C)(C)C)C(=O)N1CCC[C@H]1C(=O)N2` [Compound 404], the IC50 under setting [1] is < 10 µM.

Turning to `O=C1N[C@]2(C(=O)NS(=O)(=O)C3CC3)C[C@H]2/C=C\CCCCC[C@H](Nc2c(N3C4CCC3CC4)c(=O)c2=O)C(=O)N2C[C@H](OC(=O)N3Cc4cccc(F)c4C3)C[C@@H]12` [Compound 199], under setting [1], the IC50 is < 0.1 µM.

On to `CC(C)(C)OC(=O)N[C@H]1CCCCC/C=C\[C@@H]2C[C@@]2(C(=O)NS(=O)(=O)Nc2ccc(C#N)cc2)NC(=O)[C@@H]2CCCN2C1=O` [Compound 2241], for which, under setting [1], the IC50 was < 1 µM. Turning to `CC(C)(C)OC(=O)N[C@H]1CCCCC/C=C\[C@@H]2C[C@@]2(C(=O)NS(=O)(=O)c2ccc(Br)cc2)NC(=O)[C@@H]2CCCN2C1=O` [Compound 2131], the half-maximal inhibitory concentration (IC50) under setting [1] was < 10 µM. The same measure, in the same setting: the value for `CC(C)C(C(C)C)S(=O)(=O)NC(=O)[C@@]12C[C@H]1/C=C\CCCCC[C@H](NC(=O)OC(C)(C)C)C(=O)N1CCC[C@H]1C(=O)N2` [Compound 2209] was < 1 µM; that for `COCC1(S(=O)(=O)NC(=O)[C@@]23C[C@H]2/C=C\CCCCC[C@H](NC(=O)OC(C)(C)C)C(=O)N2CCC[C@H]2C(=O)N3)CC1` [Compound 302] was < 10 µM; that for `CC(C)(C)OC(=O)N[C@H]1CCCCC/C=C\[C@@H]2C[C@@]2(C(=O)NS(=O)(=O)NC2(C#N)CC2)NC(=O)[C@@H]2CCCN2C1=O` [Compound 2212] was < 1 µM.

As for `C[C@H](NC(=O)[C@@]12C[C@H]1/C=C\CCCCC[C@H](NC(=O)OC(C)(C)C)C(=O)N1C[C@H](OC(=O)N3Cc4ccccc4C3)C[C@H]1C(=O)N2)c1ccccc1` [Compound 2502], the IC50 (Table 24) was > 10 µM. As to `CCOC(=O)[C@@]12C[C@H]1/C=C\CCCCC[C@H](NC(=O)OC(C)(C)C)C(=O)N1C[C@H](OC(=O)N3Cc4ccc(OCCNC(C)C)cc4C3)C[C@H]1C(=O)N2` [Compound 125], the IC50 under setting [1] is < 10 µM. Consider `CC1CCCN1S(=O)(=O)NC(=O)[C@@]12C[C@H]1/C=C\CCCCC[C@H](NC(=O)OC(C)(C)C)C(=O)N1CCC[C@H]1C(=O)N2` (stereo partly drawn) [Compound 2250], for which the IC50 under setting [1] is < 10 µM. Consider `C=CCC1(S(=O)(=O)NC(=O)[C@@]23C[C@H]2/C=C\CCCCC[C@H](NC(=O)OC(C)(C)C)C(=O)N2CCC[C@H]2C(=O)N3)CC1` [Compound 305], for which the IC50 under setting [1] is < 10 µM. With `CC(C)(C)OC(=O)N[C@H]1CCCCC/C=C\[C@@H]2C[C@@]2(C(=O)NS(=O)(=O)N2CCCCC2c2cccnc2)NC(=O)[C@@H]2CCCN2C1=O` (stereo partly drawn) [Compound 2222], under setting [1], the IC50 is < 1 µM. For the compound `CC(C)(C)OC(=O)N[C@H]1CCCCC/C=C\[C@@H]2C[C@@]2(C(=O)NS(=O)(=O)C(C)(C)C)NC(=O)[C@@H]2CCCN2C1=O` [Compound 303], under setting [1], the half-inhibitory concentration (IC50) was > 10 µM. Turning to `CNC(=O)NC(=O)[C@@]12C[C@H]1/C=C\CCCCC[C@H](NC(=O)OC(C)(C)C)C(=O)N1C[C@H](OC(=O)N3Cc4ccccc4C3)C[C@H]1C(=O)N2` [Compound 703], the IC50 under setting [1] is < 1 µM. On to `CC(C)(C)OC(=O)N[C@H]1CCCCC/C=C\[C@@H]2C[C@@]2(C(=O)NS(=O)(=O)N2CCc3ccccc3C2)NC(=O)[C@@H]2CCCN2C1=O` [Compound 408], for which the IC50 under setting [1] is < 10 µM. Turning to `Cc1cc(Cl)cc(Cl)c1S(=O)(=O)NC(=O)[C@@]12C[C@H]1/C=C\CCCCC[C@H](NC(=O)OC(C)(C)C)C(=O)N1CCC[C@H]1C(=O)N2` [Compound 2123], the IC50 under setting [1] was < 1 µM. In the case of `CC(C)(C)OC(=O)N[C@H]1CCCCC/C=C\[C@@H]2C[C@@]2(C(=O)NS(=O)(=O)c2ccc(Cl)s2)NC(=O)[C@@H]2CCCN2C1=O` [Compound 2132], the IC50 under setting [1] is < 10 µM. Consider `CC(C)(C)OC(=O)N[C@H]1CCCCC/C=C\[C@@H]2C[C@@]2(C(=O)NS(=O)(=O)NCCc2ccccc2)NC(=O)[C@@H]2CCCN2C1=O` [Compound 2228], for which, under setting [1], the IC50 was < 10 µM. On the same count and under the same terms, the value for `CC(C)(C)OC(=O)N[C@H]1CCCCC/C=C\[C@@H]2C[C@@]2(C(=O)NS(=O)(=O)c2ccccc2Br)NC(=O)[C@@H]2CCCN2C1=O` [Compound 2111] was < 10 µM. As for `CC(C)(C)OC(=O)N[C@H]1CCCCC/C=C\[C@@H]2C[C@@]2(C(=O)NS(=O)(=O)N2Cc3ccccc3C2)NC(=O)[C@@H]2CCCN2C1=O` [Compound 409], under setting [1], the IC50 was < 10 µM. Take `COc1ccc(S(=O)(=O)NC(=O)[C@@]23C[C@H]2/C=C\CCCCC[C@H](NC(=O)OC2CCCC2)C(=O)N2C[C@H](OC(=O)N4CCc5ccccc5C4)C[C@H]2C(=O)N3)cc1` [Compound 120]: the concentration for half-maximal inhibition (IC50) under setting [1] was < 0.1 µM. Still for that read-out and setting: the value for `CC(C)(C)OC(=O)N[C@H]1CCCCC/C=C\[C@@H]2C[C@@]2(C(=O)NC(=O)Nc2ccccc2)NC(=O)[C@@H]2C[C@@H](OC(=O)N3Cc4ccccc4C3)CN2C1=O` [Compound 704] was < 10 µM.

As to `COC[C@H]1CCCN1S(=O)(=O)NC(=O)[C@@]12C[C@H]1/C=C\CCCCC[C@H](NC(=O)OC(C)(C)C)C(=O)N1CCC[C@H]1C(=O)N2` [Compound 2251], the IC50 under setting [1] is < 0.1 µM. As to `CC(C)(C)OC(=O)N[C@H]1CCCCC/C=C\[C@@H]2C[C@@]2(C(=O)NS(=O)(=O)C2(C)CC2)NC(=O)[C@@H]2CCCN2C1=O` [Compound 300, (1S,4R,6S,14S) tert-butyl 4-Cyclopropanesulfonylaminocarbonyl-2,15-dioxo-3,16-diaza-tricyclo[14.3.0.0^4,6]nonadec-7-ene-14-yl carbamate], the IC50 under setting [1] was < 1 µM.

Take `CC(C)(C)OC(=O)N[C@H]1CCCCC/C=C\[C@@H]2C[C@@]2(C(=O)NS(=O)(=O)c2cccc(Cl)c2F)NC(=O)[C@@H]2CCCN2C1=O` [Compound 2151]: the IC50 under setting [1] was < 1 µM. As for `CN1CCN(S(=O)(=O)NC(=O)[C@@]23C[C@H]2/C=C\CCCCC[C@H](NC(=O)OC(C)(C)C)C(=O)N2CCC[C@H]2C(=O)N3)CC1` [Compound 2208], the IC50 under setting [1] was < 1 µM. With `CC(C)(C)OC(=O)N[C@H]1CCCCC/C=C\[C@@H]2C[C@@]2(C(=O)NS(=O)(=O)Nc2ccc(Cl)cc2Cl)NC(=O)[C@@H]2CCCN2C1=O` [Compound 410], the IC50 under setting [1] is > 10 µM.

With `CCCC1(S(=O)(=O)NC(=O)[C@@]23C[C@H]2/C=C\CCCCC[C@H](NC(=O)OC(C)(C)C)C(=O)N2CCC[C@H]2C(=O)N3)CC1` [Compound 304], the half-maximal inhibitory concentration (IC50) under setting [1] was < 10 µM. For `CC[C@@H]1C[C@H]2C(=O)N[C@]3(C(=O)O)C[C@H]3/C=C\CCCCC[C@H](NC(=O)OC3CCCC3)C(=O)N2C1` [Compound 313], the half-inhibitory concentration (IC50) under setting [1] was < 10 µM. Turning to `CC(C)(C)OC(=O)N[C@H]1CCCCC/C=C\[C@@H]2C[C@@]2(C(=O)NS(=O)(=O)C2CCCC2)NC(=O)[C@@H]2CCCN2C1=O` [Compound 2120], the concentration for half-maximal inhibition (IC50) under setting [1] is < 1 µM.
